The results in this text go back to patent US20240000806A1, “METHODS AND MATERIALS FOR INHIBITING CB1 ACTIVITY” (University of Pittsburgh - Of the Commonwealth System of …, priority 2020, published 2024).

As a reminder, the IC50 is the point on the concentration scale where inhibition reaches its midpoint.

SMILES strings stand for the structures.

CB1 (CNR1), sequence (P21554 whole entry, the tested form may be a part): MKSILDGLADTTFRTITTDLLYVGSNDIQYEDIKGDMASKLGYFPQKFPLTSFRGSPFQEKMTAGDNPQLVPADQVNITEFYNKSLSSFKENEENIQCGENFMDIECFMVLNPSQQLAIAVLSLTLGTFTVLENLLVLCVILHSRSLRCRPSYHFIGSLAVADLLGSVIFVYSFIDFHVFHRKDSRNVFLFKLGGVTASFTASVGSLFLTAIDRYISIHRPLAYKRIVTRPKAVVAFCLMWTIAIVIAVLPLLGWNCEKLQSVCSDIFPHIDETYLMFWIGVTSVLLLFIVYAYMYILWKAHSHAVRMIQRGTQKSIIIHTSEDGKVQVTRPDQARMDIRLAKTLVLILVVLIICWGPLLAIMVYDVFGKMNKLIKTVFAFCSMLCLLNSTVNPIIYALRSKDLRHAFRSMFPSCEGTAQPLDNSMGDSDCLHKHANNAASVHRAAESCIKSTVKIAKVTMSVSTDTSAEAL

The target of the assay is CB1 (CNR1) (Homo sapiens, UniProt P21554). As to the kind of experiment: cAMP CNR1 Hunter cell line antagonist assay (CB1 assay). It is filed as cell-based. The note with it: antagonist mode, cAMP CNR1 Hunter cells, EC80 agonist; read-out: CB1 assay, Efficacy (IC50). In a few lines:
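Antagonist mode in CNR1 Hunter cells: compound preincubated 30 min at 37 °C, then EC80 agonist for 30 min at 37 °C. cAMP measured by enzyme-fragment complementation chemiluminescence after lysis (1 h) and detection (3 h, room temperature); IC50 fitted from the dose response.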
As to `CC1Oc2c(cc(Br)cc2S(=O)(=O)Nc2cccc(F)c2)N(C)C1=O` (stereo not drawn) [BC19902], the IC50 was ≥ 25 µM.
The value for `CC1Oc2cc(S(=O)(=O)Nc3cccc(F)c3)c(Br)cc2N(C)C1=O` (stereo not drawn) [BC19903] was 1 to 25 µM; that for `CC1Oc2c(cc(Br)cc2S(=O)(=O)Nc2cccc(Cl)c2)N(C)C1=O` (stereo not drawn) [BC19904] was 1 to 25 µM.
On to `CC1Oc2cc(S(=O)(=O)Nc3cccc(Cl)c3)c(Br)cc2N(C)C1=O` (stereo not drawn) [BC19905], for which the IC50 was ≥ 25 µM.
As for `Cc1ccc(NS(=O)(=O)c2cc(Br)cc3c2OC(C)C(=O)N3C)cc1` (stereo not drawn) [BC19906], the figure is ≥ 25 µM; as for `CC1Oc2cc(S(=O)(=O)Nc3ccc(F)cc3Cl)c(Br)cc2N(C)C1=O` (stereo not drawn) [BC19907], ≥ 25 µM.
As for `CC1Oc2c(cc(Br)cc2S(=O)(=O)Nc2ccc(F)cc2Cl)N(C)C1=O` (stereo not drawn) [BC19908], the figure is ≥ 25 µM; as for `COc1ccc(NS(=O)(=O)c2cc(Br)cc3c2OC(C)C(=O)N3C)cc1Cl` (stereo not drawn) [BC19909], ≥ 25 µM.
As for `CC1Oc2cc(S(=O)(=O)Nc3ccc(F)cc3)c(Br)cc2N(C)C1=O` (stereo not drawn) [BC19910], the figure is ≥ 25 µM; as for `CC1Oc2c(cc(Br)cc2S(=O)(=O)Nc2ccc(F)cc2)N(C)C1=O` (stereo not drawn) [BC19911], ≥ 25 µM; as for `Cc1ccc(NS(=O)(=O)c2cc3c(cc2Br)N(C)C(=O)C(C)O3)cc1` (stereo not drawn) [BC19912], ≥ 25 µM.
In the case of `CCC1Oc2c(cc(Br)cc2S(=O)(=O)Nc2ccc(F)cc2F)N(C)C1=O` (stereo not drawn) [BC19913], the IC50 was in the range of 1 to 25 µM.
As for `CCC1Oc2cc(S(=O)(=O)Nc3ccc(F)cc3F)c(Br)cc2N(C)C1=O` (stereo not drawn) [BC19914], the half-maximal inhibitory concentration (IC50) is 1 to 25 µM.
As for `CCc1cccc(NS(=O)(=O)c2cc(Br)cc3c2OC(CC)C(=O)N3C)c1` (stereo not drawn) [BC19915], the figure is 1 to 25 µM; as for `CCc1cccc(NS(=O)(=O)c2cc3c(cc2Br)N(C)C(=O)C(CC)O3)c1` (stereo not drawn) [BC19916], 1 to 25 µM.
The value for `O=C(O)c1cc2c(c(NS(=O)(=O)c3ccc(F)c(F)c3)c1)N1CCCC1C(=O)N2` (stereo not drawn) [BC19917] was 1 to 25 µM.
With `COc1ccc(NS(=O)(=O)c2cc3c(cc2Br)N(C)C(=O)C(C)O3)cc1Cl` (stereo not drawn) [BC19919], the IC50 was ≥ 25 µM.
As for `CC1Oc2cc(S(=O)(=O)Nc3ccc(C#N)cc3)c(Br)cc2N(C)C1=O` (stereo not drawn) [BC19920], the figure is 1 to 25 µM; as for `CCC1Oc2c(cc(Br)cc2S(=O)(=O)Nc2ccc(OC(F)(F)F)cc2)N(C)C1=O` (stereo not drawn) [BC19921], 1 to 25 µM.
Take `CCC1Oc2cc(S(=O)(=O)Nc3ccc(OC(F)(F)F)cc3)c(Br)cc2N(C)C1=O` (stereo not drawn) [BC19922]: the half-inhibitory concentration (IC50) is ≥ 25 µM.
The value for `CCC1Oc2c(cc(Br)cc2S(=O)(=O)Nc2ccc(C)c(F)c2)N(C)C1=O` (stereo not drawn) [BC19923] was ≥ 25 µM; that for `CCC1Oc2cc(S(=O)(=O)Nc3ccc(C)c(F)c3)c(Br)cc2N(C)C1=O` (stereo not drawn) [BC19924] was 1 to 25 µM; that for `CCC1Oc2c(cc(Br)cc2S(=O)(=O)Nc2ccc(F)c(F)c2)N(C)C1=O` (stereo not drawn) [BC19925] was 1 to 25 µM.
For `CCC1Oc2cc(S(=O)(=O)Nc3ccc(F)c(F)c3)c(Br)cc2N(C)C1=O` (stereo not drawn) [BC19926], the IC50 was ≥ 25 µM.
The value for `CCC1Oc2c(cc(Br)cc2S(=O)(=O)Nc2ccccc2)N(C)C1=O` (stereo not drawn) [BC19927] was ≥ 25 µM.
Turning to `CCC1Oc2cc(S(=O)(=O)Nc3ccccc3)c(Br)cc2N(C)C1=O` (stereo not drawn) [BC19928], the IC50 was ≥ 25 µM.
For the compound `CCC1Oc2c(cc(Br)cc2S(=O)(=O)Nc2ccc(Cl)cc2)N(C)C1=O` (stereo not drawn) [BC19929], the IC50 is ≥ 25 µM.
As for `CCC1Oc2cc(S(=O)(=O)Nc3ccc(Cl)cc3)c(Br)cc2N(C)C1=O` (stereo not drawn) [BC19930], the figure is ≥ 25 µM.
Turning to `CCc1ccc(NS(=O)(=O)c2cc(Br)cc3c2OC(CC)C(=O)N3C)cc1` (stereo not drawn) [BC19931], the IC50 is ≥ 25 µM.
The value for `CCc1ccc(NS(=O)(=O)c2cc3c(cc2Br)N(C)C(=O)C(CC)O3)cc1` (stereo not drawn) [BC19932] was ≥ 25 µM; that for `CCC1Oc2c(cc(Br)cc2S(=O)(=O)Nc2ccc(C(C)C)cc2)N(C)C1=O` (stereo not drawn) [BC19933] was ≥ 25 µM; that for `CCC1Oc2cc(S(=O)(=O)Nc3ccc(C(C)C)cc3)c(Br)cc2N(C)C1=O` (stereo not drawn) [BC19934] was ≥ 25 µM.
The value for `CCC1Oc2c(cc(Br)cc2S(=O)(=O)Nc2ccc(OC)cc2)N(C)C1=O` (stereo not drawn) [BC19935] was ≥ 25 µM; that for `CCC1Oc2cc(S(=O)(=O)Nc3ccc(OC)cc3)c(Br)cc2N(C)C1=O` (stereo not drawn) [BC19936] was ≥ 25 µM; that for `CCC1Oc2c(cc(Br)cc2S(=O)(=O)Nc2ccc(C)c(Cl)c2)N(C)C1=O` (stereo not drawn) [BC19937] was ≥ 25 µM.
As for `CCC1Oc2cc(S(=O)(=O)Nc3ccc(C)c(Cl)c3)c(Br)cc2N(C)C1=O` (stereo not drawn) [BC19938], the figure is ≥ 25 µM.
